Each block holds one compound with its values, some of them ahead of it.
Key:
[1] = tested on: HEK293; assay: Antiproliferative activity against HEK293 cells assessed as inhibition of cell growth incubated for 48 hrs by CCK8 assay; assay type: functional, cell-based; settings: Homo sapiens, HEK293, 48 h
[2] = molecular target: T1, DNA repair protein RAD52 homolog (Homo sapiens, UniProt P43351); assay: Inhibition of RAD52 (unknown origin) by FRET analysis
T1 sequence (P43351 whole entry): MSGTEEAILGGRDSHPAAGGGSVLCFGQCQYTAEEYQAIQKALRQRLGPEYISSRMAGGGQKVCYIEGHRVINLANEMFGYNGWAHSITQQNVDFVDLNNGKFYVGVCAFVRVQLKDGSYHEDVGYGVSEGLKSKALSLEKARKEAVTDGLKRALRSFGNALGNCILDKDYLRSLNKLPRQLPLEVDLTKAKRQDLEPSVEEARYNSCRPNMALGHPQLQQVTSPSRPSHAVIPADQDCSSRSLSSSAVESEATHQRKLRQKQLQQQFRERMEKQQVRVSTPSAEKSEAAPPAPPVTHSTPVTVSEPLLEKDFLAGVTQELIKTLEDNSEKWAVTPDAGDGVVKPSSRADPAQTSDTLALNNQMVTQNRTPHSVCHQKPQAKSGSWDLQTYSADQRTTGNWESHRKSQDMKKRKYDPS

[3] = molecular target: DNA-dependent protein kinase catalytic subunit (Homo sapiens, UniProt P78527)
Description: Inhibition of DNA-PK in human HCT-116 cells measured after 1 hr by Bradford assay

[4] = molecular target: T2, Ubiquitin carboxyl-terminal hydrolase 1 (Homo sapiens, UniProt O94782); assay: Inhibition of human recombinant USP1 expressed in baculovirus expressed in Bac-to-Bac baculovirus expression system
T2 sequence (O94782 whole entry): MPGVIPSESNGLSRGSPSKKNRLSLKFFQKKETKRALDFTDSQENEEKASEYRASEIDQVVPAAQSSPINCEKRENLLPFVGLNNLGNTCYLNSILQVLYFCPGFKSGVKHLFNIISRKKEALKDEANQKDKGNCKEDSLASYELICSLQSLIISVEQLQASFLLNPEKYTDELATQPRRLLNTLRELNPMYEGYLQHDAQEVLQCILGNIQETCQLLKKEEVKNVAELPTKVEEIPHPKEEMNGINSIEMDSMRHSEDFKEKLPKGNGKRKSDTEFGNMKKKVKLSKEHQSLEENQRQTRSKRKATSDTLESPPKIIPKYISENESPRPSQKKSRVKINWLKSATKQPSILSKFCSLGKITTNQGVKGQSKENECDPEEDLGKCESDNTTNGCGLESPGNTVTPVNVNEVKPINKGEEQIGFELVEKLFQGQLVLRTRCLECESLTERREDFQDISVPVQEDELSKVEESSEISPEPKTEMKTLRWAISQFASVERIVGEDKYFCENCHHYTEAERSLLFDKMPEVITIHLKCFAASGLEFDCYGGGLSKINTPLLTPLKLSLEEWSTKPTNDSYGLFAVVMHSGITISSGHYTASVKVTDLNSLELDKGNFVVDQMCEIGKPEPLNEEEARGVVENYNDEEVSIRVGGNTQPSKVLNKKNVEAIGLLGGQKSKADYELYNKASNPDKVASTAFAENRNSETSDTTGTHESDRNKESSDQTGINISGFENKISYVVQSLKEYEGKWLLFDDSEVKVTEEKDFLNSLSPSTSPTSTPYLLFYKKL

[5] = Antiproliferative activity against human UWB1289 cells harboring BRCA1 assessed inhibition of cell growth incubated for 48 hrs by MTT assay; assay type: functional, cell-based; settings: UWB1289, 48 h
[6] = tested on: LoVo; assay: Antiproliferative activity against human LoVo cells assessed as reduction in cell viability measured for 48 hrs byT assay; assay type: functional, cell-based
[7] = Intrinsic clearance in human liver microsomes; assay type: ADME, Microsome
[8] = molecular target: von Hippel-Lindau disease tumor suppressor/SWI/SNF-related matrix-associated actin-dependent regulator of chromatin subfamily A member 2 (Homo sapiens) (UniProt P51531+P40337); assay: PROTAC activity at VHL/SMARCA2 in human NCI-H838 cells assessed as induction of SMARCA2 degradation at 0.001 to 1000 nM incubated for 24 hrs by Western blotting analysis relative to control; assay type: cell-based; settings: dose 0.001-1000 nM
[9] = molecular target: von Hippel-Lindau disease tumor suppressor/SWI/SNF-related matrix-associated actin-dependent regulator of chromatin subfamily A member 4 (Homo sapiens) (UniProt P51532+P40337); assay: PROTAC activity at VHL/SMARCA4 in human MV4-11 cells assessed as induction of SMARCA4 degradation by measuring maximal efficacy incubated for 18 hrs by Western blotting analysis relative to control; assay type: cell-based
[10] = Intrinsic clearance in mouse liver microsomes; assay type: ADME, Microsome

Chain of von Hippel-Lindau disease tumor suppressor/SWI/SNF-related matrix-associated actin-dependent regulator of chromatin subfamily A member 4 (Homo sapiens) (P40337 whole entry, looked up): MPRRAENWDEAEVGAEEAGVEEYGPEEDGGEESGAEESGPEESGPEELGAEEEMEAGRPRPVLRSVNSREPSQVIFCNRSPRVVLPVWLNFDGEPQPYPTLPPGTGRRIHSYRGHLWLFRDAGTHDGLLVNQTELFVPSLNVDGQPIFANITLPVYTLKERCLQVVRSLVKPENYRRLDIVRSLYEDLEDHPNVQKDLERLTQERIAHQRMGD
Chain of von Hippel-Lindau disease tumor suppressor/SWI/SNF-related matrix-associated actin-dependent regulator of chromatin subfamily A member 4 (Homo sapiens) (P51532 whole entry, looked up): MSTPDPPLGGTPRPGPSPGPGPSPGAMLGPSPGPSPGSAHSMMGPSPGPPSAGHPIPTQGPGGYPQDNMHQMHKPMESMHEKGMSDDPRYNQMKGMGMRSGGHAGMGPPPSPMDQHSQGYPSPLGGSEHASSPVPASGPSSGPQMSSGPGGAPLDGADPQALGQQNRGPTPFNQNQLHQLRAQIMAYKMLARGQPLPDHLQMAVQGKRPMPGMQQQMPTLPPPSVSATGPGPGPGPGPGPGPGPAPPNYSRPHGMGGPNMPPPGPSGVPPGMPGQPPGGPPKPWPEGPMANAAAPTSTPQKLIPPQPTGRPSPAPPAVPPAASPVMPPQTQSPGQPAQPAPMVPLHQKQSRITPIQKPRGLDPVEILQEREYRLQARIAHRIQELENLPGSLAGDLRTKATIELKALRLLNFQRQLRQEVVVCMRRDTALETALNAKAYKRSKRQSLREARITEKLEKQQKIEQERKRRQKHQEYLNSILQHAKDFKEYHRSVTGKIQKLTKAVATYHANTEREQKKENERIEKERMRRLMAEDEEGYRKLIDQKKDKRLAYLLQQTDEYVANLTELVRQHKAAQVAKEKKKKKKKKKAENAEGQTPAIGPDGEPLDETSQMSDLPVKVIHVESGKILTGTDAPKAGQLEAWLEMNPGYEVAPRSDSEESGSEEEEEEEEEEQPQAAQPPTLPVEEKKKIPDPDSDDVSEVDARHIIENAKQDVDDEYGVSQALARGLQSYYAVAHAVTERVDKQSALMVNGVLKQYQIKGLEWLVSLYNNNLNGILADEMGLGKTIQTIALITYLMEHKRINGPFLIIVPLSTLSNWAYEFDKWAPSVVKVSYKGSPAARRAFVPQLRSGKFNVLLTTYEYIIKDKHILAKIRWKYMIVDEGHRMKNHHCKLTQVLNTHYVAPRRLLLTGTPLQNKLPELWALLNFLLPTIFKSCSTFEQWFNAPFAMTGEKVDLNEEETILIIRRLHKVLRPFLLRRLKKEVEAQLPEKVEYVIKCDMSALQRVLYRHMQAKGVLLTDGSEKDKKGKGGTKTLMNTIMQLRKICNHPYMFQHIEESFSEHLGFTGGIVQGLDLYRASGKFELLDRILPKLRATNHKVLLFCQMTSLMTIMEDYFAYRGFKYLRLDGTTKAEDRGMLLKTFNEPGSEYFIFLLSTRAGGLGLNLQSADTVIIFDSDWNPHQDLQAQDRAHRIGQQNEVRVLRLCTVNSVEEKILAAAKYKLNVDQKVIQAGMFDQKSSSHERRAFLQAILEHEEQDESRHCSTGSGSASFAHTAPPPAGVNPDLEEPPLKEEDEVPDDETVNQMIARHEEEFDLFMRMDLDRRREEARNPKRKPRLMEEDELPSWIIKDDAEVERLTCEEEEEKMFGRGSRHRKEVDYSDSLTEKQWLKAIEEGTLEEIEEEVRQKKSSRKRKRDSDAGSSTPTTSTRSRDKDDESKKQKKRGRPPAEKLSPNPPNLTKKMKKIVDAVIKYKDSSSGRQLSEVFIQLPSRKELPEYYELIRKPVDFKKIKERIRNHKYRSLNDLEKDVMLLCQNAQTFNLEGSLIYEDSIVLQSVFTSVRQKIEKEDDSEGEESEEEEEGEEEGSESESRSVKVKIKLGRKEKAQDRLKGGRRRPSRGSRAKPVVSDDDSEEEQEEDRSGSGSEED
Chain of von Hippel-Lindau disease tumor suppressor/SWI/SNF-related matrix-associated actin-dependent regulator of chromatin subfamily A member 2 (Homo sapiens) (P40337 whole entry, looked up): as the sequence (P40337 whole entry, looked up) above
Chain of von Hippel-Lindau disease tumor suppressor/SWI/SNF-related matrix-associated actin-dependent regulator of chromatin subfamily A member 2 (Homo sapiens) (P51531 whole entry, looked up): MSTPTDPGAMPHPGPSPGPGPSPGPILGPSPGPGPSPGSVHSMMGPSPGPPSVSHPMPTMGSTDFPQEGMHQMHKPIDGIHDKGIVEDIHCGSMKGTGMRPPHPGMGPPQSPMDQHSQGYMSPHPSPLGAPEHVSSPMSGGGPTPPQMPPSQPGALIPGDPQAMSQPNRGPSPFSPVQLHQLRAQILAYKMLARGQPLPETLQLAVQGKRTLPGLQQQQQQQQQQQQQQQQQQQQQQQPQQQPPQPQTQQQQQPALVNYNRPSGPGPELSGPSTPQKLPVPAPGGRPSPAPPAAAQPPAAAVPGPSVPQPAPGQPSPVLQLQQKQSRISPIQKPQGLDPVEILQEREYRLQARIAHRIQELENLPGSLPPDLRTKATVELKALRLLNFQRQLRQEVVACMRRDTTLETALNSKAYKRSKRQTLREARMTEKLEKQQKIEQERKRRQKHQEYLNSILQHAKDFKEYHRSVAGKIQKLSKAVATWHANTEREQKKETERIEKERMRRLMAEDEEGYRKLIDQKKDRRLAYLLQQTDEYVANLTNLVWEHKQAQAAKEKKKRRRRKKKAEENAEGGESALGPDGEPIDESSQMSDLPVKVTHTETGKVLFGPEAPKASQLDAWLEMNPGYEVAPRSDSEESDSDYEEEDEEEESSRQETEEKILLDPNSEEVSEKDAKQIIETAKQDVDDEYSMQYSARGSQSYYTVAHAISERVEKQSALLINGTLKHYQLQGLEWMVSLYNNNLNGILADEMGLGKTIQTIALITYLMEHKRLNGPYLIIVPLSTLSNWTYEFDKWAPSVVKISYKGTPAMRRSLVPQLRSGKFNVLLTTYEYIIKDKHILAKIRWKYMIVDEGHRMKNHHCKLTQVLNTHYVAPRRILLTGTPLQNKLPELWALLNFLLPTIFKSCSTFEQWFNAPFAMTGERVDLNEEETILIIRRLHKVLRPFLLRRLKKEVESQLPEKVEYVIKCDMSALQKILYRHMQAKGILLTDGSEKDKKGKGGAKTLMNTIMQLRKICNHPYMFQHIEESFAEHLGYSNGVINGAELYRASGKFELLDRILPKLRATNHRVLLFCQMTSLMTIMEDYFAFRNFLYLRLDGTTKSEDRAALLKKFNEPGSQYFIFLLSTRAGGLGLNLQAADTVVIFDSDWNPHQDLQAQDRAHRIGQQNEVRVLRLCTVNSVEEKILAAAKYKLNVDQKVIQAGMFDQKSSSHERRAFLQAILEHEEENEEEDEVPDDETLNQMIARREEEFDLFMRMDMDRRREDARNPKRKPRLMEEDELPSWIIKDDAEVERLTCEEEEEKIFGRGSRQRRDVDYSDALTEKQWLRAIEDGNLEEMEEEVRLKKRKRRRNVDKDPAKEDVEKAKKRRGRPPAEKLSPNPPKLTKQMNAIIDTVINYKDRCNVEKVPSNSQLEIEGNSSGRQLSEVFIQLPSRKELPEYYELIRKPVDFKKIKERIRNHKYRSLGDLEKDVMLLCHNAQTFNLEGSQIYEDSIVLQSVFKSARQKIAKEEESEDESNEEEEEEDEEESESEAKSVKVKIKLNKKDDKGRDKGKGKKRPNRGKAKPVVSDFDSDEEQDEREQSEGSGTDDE

SMILES: C[C@@H]1COCCN1c1cc(N=[S@@](C)(=O)C2CC2)nc(-c2ccnc(N)c2)n1
IC50 [1]: 7900 nM

SMILES: CC(C)NCCOc1ncc(-c2cc3c4c(cnc3cc2F)N(C)C(=O)C42CCC2)cc1NS(C)(=O)=O
IC50 [3]: 0.89 nM

SMILES: CC(C)c1ccccc1-c1ncc2[nH]c(=O)n(Cc3ccc(-c4nc(C(F)(F)F)cn4C)cc3)c2n1
IC50 [4]: 4.1 nM

SMILES: Cc1cccc(N(C)C(=O)[C@@H]2[C@H](O)CCN2c2nc(C)cc(C(F)(F)F)c2C#N)c1
IC50 [5]: 7.9 nM

SMILES: Nc1nn2cc(F)cnc2c1C(=O)Nc1cncc(F)c1N1CCC(C(=O)N2CCN(C3COC3)CC2)CC1 [M4344]
IC50 [6]: 86 nM

SMILES: Cc1ncc(Cn2c(=O)c3cc(S(=O)(=O)NC4(C)CC4)ccc3n(CC3CC3)c2=O)s1
CLH [7]: 78 µL/min/mg

SMILES: Cc1ncsc1-c1ccc([C@H](CC[C@H](C)CCN2CCC(c3ccc4c(c3)n(C3CCCC3)c3nc(=O)c5c(Br)cccc5n43)CC2)NC(=O)[C@@H]2C[C@@H](O)CN2C(=O)[C@@H](NC(=O)C2(F)CC2)C(C)(C)C)cc1
Emax [8]: 81% | Emax [9]: 67%

Now from value to compound:

IC50 [2]: 2000 nM
SMILES: O=C(Cn1cccc([N+](=O)[O-])c1=O)c1c[nH]c2ccccc12

IC50 [2]: 2000 nM
SMILES: COc1ccccc1NS(=O)(=O)c1cc(C(=O)O)ccc1C

CLH [10]: 211 µL/min/mg
SMILES: Cn1c(=O)c2cc(S(=O)(=O)NC3(C)CC3)ccc2n(C)c1=O
